The values that follow come from ChEMBL document CHEMBL1201862, “PubChem BioAssay data set” (2004).

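Tested at 5 concentrations; 48 h exposure; 96-well plates; endpoints linearly interpolated, else capped at highest concentration. GI50: concentration for 50% inhibition of growth.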 Active and inactive are the calls of the source. No stated cut-off is given here; in the data, active = GI50 up to about 1.1 µM and inactive = higher. A value given as a limit tells only on which side of the number the result lay.

Test systems include A549; ACHN; CAKI-1; HCT-116; KM12; LOX IMVI; MCF7; MDA-MB-231; MOLT-4; Malme-3M; NCI-H23; NCI-H522; OVCAR-8; SK-MEL-2; SK-OV-3; SNB-75; SR; T47D; UACC-62; CCRF-CEM.
Common to all, as to experiment: inhibition of tumour cell growth, NCI panel, 48 h

For the compound `CN(C)C=O.O=C(Nc1nnn[nH]1)c1nc(O)cc(-c2ccccc2)n1`, the GI50 in the assay on A549, with ACHN, in the assay on CAKI-1, in the assay with HCT-116, in the assay with KM12 and with LOX IMVI was > 100 µM (inactive) throughout. Besides, the GI50 in the assay with MCF7, in the assay on MDA-MB-231, in the assay with MOLT-4, with Malme-3M, in the assay on NCI-H23 and with NCI-H522 was > 100 µM (inactive) in each case. Further, the GI50 in the assay on OVCAR-8, with SK-MEL-2, in the assay on SK-OV-3, with SNB-75, in the assay with SR and with T47D was > 100 µM (inactive) in each case. In addition, the GI50 in the assay with UACC-62 was > 100 µM (inactive).
As to `COc1ccc(C2CC(=O)Oc3ccccc3O2)cc1` (stereo not drawn), the GI50 in the assay on A549 was > 100 µM (inactive); in the assay with ACHN it was > 100 µM (inactive); in the assay on CCRF-CEM, 52.8 µM (inactive); in the assay on HCT-116, > 100 µM (inactive); with KM12 it was > 100 µM (inactive); in the assay with MCF7, > 100 µM (inactive). The GI50 is > 100 µM (inactive) in the assay with MDA-MB-231; > 100 µM (inactive) in the assay with MOLT-4; > 100 µM (inactive) in the assay on NCI-H23; 32.1 µM (inactive) with NCI-H522; > 100 µM (inactive) in the assay with OVCAR-8; > 100 µM (inactive) in the assay on SK-OV-3. Besides, the GI50 is > 100 µM (inactive) with SNB-75, 52.7 µM (inactive) in the assay with SR, > 100 µM (inactive) in the assay with T47D and > 100 µM (inactive) in the assay with UACC-62.
`Clc1ccc(-c2ccc(-c3nnc(COc4ccc(OCc5nnc(-c6ccc(-c7ccc(Cl)cc7Cl)o6)o5)c(Cl)c4)o3)o2)c(Cl)c1`: the GI50 was > 100 µM (inactive) in the assay with A549; > 100 µM (inactive) in the assay on ACHN; > 100 µM (inactive) in the assay with CAKI-1; 32.4 µM (inactive) in the assay on CCRF-CEM; > 100 µM (inactive) in the assay on HCT-116; > 100 µM (inactive) in the assay on KM12. The GI50 with LOX IMVI was > 100 µM (inactive); with MCF7, > 100 µM (inactive); in the assay with MDA-MB-231 it was > 100 µM (inactive); in the assay with MOLT-4, 28.4 µM (inactive); with NCI-H23, > 100 µM (inactive); in the assay on NCI-H522, > 100 µM (inactive). In addition, the GI50 with OVCAR-8 was 45.7 µM (inactive); with SK-MEL-2, 25.3 µM (inactive); in the assay on SR it was 28.8 µM (inactive); in the assay on T47D, > 100 µM (inactive); in the assay on UACC-62 it was > 100 µM (inactive).
In the case of `CC/C(=C\c1ccc(Cl)c(Cl)c1)[N+](=O)[O-]`, the GI50 in the assay on A549 is 2.1 µM (inactive); in the assay with ACHN it was 1.75 µM (inactive); with HCT-116 it was 3.66 µM (inactive); in the assay on KM12, 2.96 µM (inactive); in the assay on LOX IMVI, 0.405 µM (active); in the assay on MCF7, 1.15 µM (inactive). The GI50 with MDA-MB-231 was 2.53 µM (inactive); in the assay on MOLT-4, 0.236 µM (active); with Malme-3M it was 1.92 µM (inactive); with NCI-H23, 2.34 µM (inactive); in the assay on NCI-H522, 1.72 µM (inactive); in the assay on OVCAR-8, 1.68 µM (inactive). Also, the GI50 in the assay with SK-MEL-2 is 2.28 µM (inactive); in the assay with SNB-75, 3.84 µM (inactive); with SR, 0.948 µM (active); with T47D it was 2.93 µM (inactive); in the assay on UACC-62 it was 1.93 µM (inactive).
In the case of `C=C1C(C2(C)C=CC(=O)OC3(C)COC(=O)CC32)C(OC=O)C(OC(=O)C(O)C(C)CC)C2(C)C(c3ccoc3)CC(OC(C)=O)C12O` (stereo not drawn), the GI50 with A549 is > 100 µM (inactive); in the assay on ACHN, 75.9 µM (inactive); in the assay with CAKI-1, > 100 µM (inactive); in the assay on CCRF-CEM it was 35 µM (inactive); in the assay on HCT-116, 49 µM (inactive); in the assay with KM12, 34 µM (inactive). For the same compound, the GI50 in the assay on LOX IMVI is 25.3 µM (inactive); in the assay with MCF7 it was > 100 µM (inactive); in the assay on MDA-MB-231 it was > 100 µM (inactive); in the assay on MOLT-4, > 100 µM (inactive); with NCI-H23, > 100 µM (inactive); in the assay on NCI-H522, > 100 µM (inactive). Moreover, the GI50 was > 100 µM (inactive) in the assay with OVCAR-8; 64.3 µM (inactive) in the assay with SK-MEL-2; > 100 µM (inactive) in the assay on SK-OV-3; 50.5 µM (inactive) in the assay with SNB-75; 38.9 µM (inactive) in the assay on SR; > 100 µM (inactive) in the assay with T47D. Further, the GI50 in the assay with UACC-62 is 35.6 µM (inactive).
For `CC(=O)c1cc(S(=O)(=O)c2ccc(O)c(C(C)=O)c2)ccc1O`, the GI50 in the assay on A549 was 49.4 µM (inactive); with ACHN, 91 µM (inactive); in the assay on CAKI-1, > 100 µM (inactive); with CCRF-CEM it was 34.4 µM (inactive); in the assay on HCT-116, 92 µM (inactive); with KM12, 44.9 µM (inactive). In addition, the GI50 was 70.3 µM (inactive) in the assay with LOX IMVI; 67.6 µM (inactive) in the assay with MCF7; > 100 µM (inactive) with MDA-MB-231; 25.4 µM (inactive) in the assay with MOLT-4; > 100 µM (inactive) with Malme-3M; 58.1 µM (inactive) in the assay on NCI-H23. For the same compound, the GI50 in the assay with NCI-H522 was > 100 µM (inactive); with OVCAR-8, 70 µM (inactive); in the assay on SK-MEL-2, 92 µM (inactive); with SK-OV-3, 66.7 µM (inactive); in the assay with SR it was 33.4 µM (inactive); in the assay with T47D, 51.8 µM (inactive). In addition, in the assay with UACC-62, the GI50 was 18.4 µM (inactive).
Regarding `O=C1/C(=C\c2cccs2)Oc2ccccc21`, the GI50 in the assay with A549 is 56.9 µM (inactive); in the assay on ACHN, 47.2 µM (inactive); with CAKI-1, 33.6 µM (inactive); with CCRF-CEM it was 57.7 µM (inactive); in the assay with HCT-116 it was 60.4 µM (inactive); in the assay with KM12, 59.4 µM (inactive). In addition, the GI50 was 51.3 µM (inactive) in the assay on LOX IMVI; 28.9 µM (inactive) in the assay on MCF7; 71.1 µM (inactive) in the assay with MDA-MB-231; 33.9 µM (inactive) with MOLT-4; 40.6 µM (inactive) in the assay on NCI-H23; 39.8 µM (inactive) in the assay on NCI-H522. Also, the GI50 is 70.8 µM (inactive) in the assay on OVCAR-8; > 100 µM (inactive) in the assay with SK-MEL-2; 38 µM (inactive) in the assay with SK-OV-3; 55.7 µM (inactive) in the assay with SNB-75; > 100 µM (inactive) in the assay on SR; 2.99 µM (inactive) in the assay on T47D. Also, the GI50 in the assay with UACC-62 is 75.2 µM (inactive).
With `CC(CNC(=O)c1ccccc1)(CNC(=O)c1ccccc1)[N+](=O)[O-]`, the GI50 with A549, in the assay with ACHN, in the assay with CAKI-1, in the assay with HCT-116, with KM12 and in the assay on MCF7 was > 100 µM (inactive) in each case. Besides, the GI50 is > 100 µM (inactive) in the assay on MDA-MB-231; > 100 µM (inactive) in the assay with MOLT-4; > 100 µM (inactive) in the assay on Malme-3M; > 100 µM (inactive) in the assay on NCI-H23; 67.1 µM (inactive) in the assay with NCI-H522; > 100 µM (inactive) with OVCAR-8. The GI50 with SK-MEL-2 is > 100 µM (inactive); in the assay with SK-OV-3, > 100 µM (inactive); with SNB-75, 51.3 µM (inactive); in the assay with SR it was > 100 µM (inactive); in the assay on T47D, > 100 µM (inactive); in the assay on UACC-62, > 100 µM (inactive).
`CN1N=C(c2ccccc2)c2cc(Cl)ccc2N=C1N/N=C/c1ccc(N(C)C)cc1`: the GI50 with A549, in the assay with ACHN, in the assay with CAKI-1, in the assay with CCRF-CEM, in the assay on HCT-116 and with KM12 was > 100 µM (inactive) throughout. For the same compound, the GI50 in the assay with MCF7 was > 100 µM (inactive); with MDA-MB-231, 97.7 µM (inactive); with MOLT-4, 62.7 µM (inactive); in the assay with NCI-H23 it was > 100 µM (inactive); in the assay with NCI-H522, > 100 µM (inactive); in the assay on OVCAR-8, > 100 µM (inactive). In addition, the GI50 with SK-OV-3 is > 100 µM (inactive); in the assay with SNB-75, > 100 µM (inactive); in the assay on SR, 49.2 µM (inactive); in the assay with T47D, > 100 µM (inactive); with UACC-62, > 100 µM (inactive).
On to `CC[C@@H]1/C=C/C=C/C[C@H](C)[C@@H](O)[C@](C)(O)C(=O)[C@H](C)[C@@H](O)[C@H](C)C(=O)[C@H](C)[C@@H](O)[C@H](C)/C=C/C(=O)O[C@H]2[C@@H](C)[C@@H](CC1)O[C@@]1(CC[C@@H](C)[C@@H](CC(C)O)O1)[C@@H]2C` (stereo partly drawn), for which the GI50 with A549 was < 0.01 µM (active); with ACHN it was 1.35 µM (inactive); with CAKI-1, 1.73 µM (inactive); in the assay with CCRF-CEM, 1.22 µM (inactive); in the assay with HCT-116, 1.1 µM (active); with KM12 it was 1.69 µM (inactive). Also, the GI50 in the assay with LOX IMVI is 1.68 µM (inactive); with MCF7 it was < 0.01 µM (active); in the assay with MDA-MB-231, 1.83 µM (inactive); in the assay on MOLT-4, 1.3 µM (inactive); in the assay with Malme-3M, 3.49 µM (inactive); in the assay with NCI-H23 it was < 0.01 µM (active). For the same compound, the GI50 with NCI-H522 was < 0.01 µM (active); with OVCAR-8, < 0.01 µM (active); in the assay with SK-MEL-2, 2.13 µM (inactive); with SK-OV-3, 3.13 µM (inactive); in the assay with SR it was 2 µM (inactive); with T47D, < 0.01 µM (active). Besides, the GI50 in the assay with UACC-62 was 1.71 µM (inactive).
For `O=[N+]([O-])c1ccc(Oc2c(Cl)cc(S(=O)(=O)N/C(=N\O)Nc3ccc(Cl)cc3)cc2Cl)c(Cl)c1`, the GI50 in the assay on A549 was 17.1 µM (inactive); with ACHN, 15 µM (inactive); with CAKI-1 it was 14.8 µM (inactive); in the assay with CCRF-CEM it was 27.3 µM (inactive); in the assay with HCT-116, 13.4 µM (inactive); in the assay on KM12 it was 13.7 µM (inactive). Also, the GI50 with LOX IMVI was 17.1 µM (inactive); with MCF7, 17.2 µM (inactive); in the assay with MDA-MB-231 it was 17 µM (inactive); in the assay with MOLT-4, 10.8 µM (inactive); with Malme-3M, 14.6 µM (inactive); with NCI-H23, 17.7 µM (inactive). For the same compound, the GI50 is 13 µM (inactive) with NCI-H522; 22.8 µM (inactive) with OVCAR-8; 17 µM (inactive) in the assay on SK-MEL-2; 10.7 µM (inactive) in the assay with SR; 13.1 µM (inactive) with T47D; 14.4 µM (inactive) in the assay on UACC-62.
